Species: Rattus norvegicus
Assay: Open TG-GATES - Regimen: Daily Repeat
Assay type: toxicity, organism-based, Sprague-Dawley
Parameters: regimen Daily Repeat, gender Male, age 6 weeks
Settings: in vivo, po, route gavage; for APTT / Bas / Eos / Fbg / Hb / Ht / Lym / MCH / MCHC / MCV / Mono / Neu / PT / Plat / RBC / Ret / WBC: tissue Blood; for KIDNEY_L / KIDNEY_R / KIDNEY_TOTAL: tissue Kidney; for LIVER: tissue Liver; for ALP / AST / BUN / CRE / Ca / Cl / DBIL / GLC / IP / K / LDH / Na / PL / RALB / TBIL / TC / TG / TP / gamma-GTP: tissue Plasma
[1] = 0 mg/kg, 72 h, dose level Control, time 3 day
[2] = 0 mg/kg, […], dose level Control, time 7 day
[3] = 0 mg/kg, […], dose level Control, time 14 day
[4] = 0 mg/kg, […], dose level Control, time 28 day
[5] = 100 mg/kg, 72 h, dose level Low, time 3 day
[6] = 100 mg/kg, […], dose level Low, time 7 day
[7] = 100 mg/kg, […], dose level Low, time 14 day
[8] = 100 mg/kg, […], dose level Low, time 28 day

## COc1ccc2[nH]c([S+]([O-])Cc3ncc(C)c(OC)c3C)nc2c1 (configuration not stated) [OMEPRAZOLE]
[1]
  TERMINAL_BW: 237.1 g
  APTT: 19.5 s
  Bas: 0%
  Eos: 1.2%
  Fbg: 210.6 mg/dL
  Hb: 13.1 g/dL
  Ht: 38%
  Lym: 80.8%
  MCH: 21.2 pg
  MCHC: 34.4%
  MCV: 61.6 fL
  Mono: 3%
  Neu: 14.8%
  PT: 12.2 s
  Plat: 128.5 x10_4/uL
  RBC: 616.6 x10_4/ul
  Ret: 5.4%
  WBC: 91.3 x10_2/uL
  KIDNEY_L: 1 g
  KIDNEY_R: 1.1 g
  KIDNEY_TOTAL: 2.1 g
  LIVER: 11.7 g
  ALP: 960.2 IU/L
  AST: 66.4 IU/L
  BUN: 15.2 mg/dL
  CRE: 0.4 mg/dL
  Ca: 10.7 mg/dL
  Cl: 102.2 meq/L
  DBIL: 0.07 mg/dL
  GLC: 233.8 mg/dL
  IP: 7 mg/dL
  K: 3.6 meq/L
  LDH: 162.8 IU/L
  Na: 141.6 meq/L
  PL: 144.4 mg/dL
  RALB: 3.3 g/dL
  TBIL: 0.1 mg/dL
  TC: 72.2 mg/dL
  TG: 91.6 mg/dL
  TP: 5.6 g/dL
  gamma-GTP: 1.2 IU/L
[2]
  TERMINAL_BW: 272.8 g
  APTT: 20.8 s
  Bas: 0%
  Eos: 1%
  Fbg: 226.4 mg/dL
  Hb: 13.9 g/dL
  Ht: 40.3%
  Lym: 79.2%
  MCH: 20.8 pg
  MCHC: 34.5%
  MCV: 60.2 fL
  Mono: 3%
  Neu: 16.2%
  PT: 11.9 s
  Plat: 124.2 x10_4/uL
  RBC: 669.6 x10_4/ul
  Ret: 4.8%
  WBC: 124.1 x10_2/uL
  KIDNEY_L: 1.2 g
  KIDNEY_R: 1.2 g
  KIDNEY_TOTAL: 2.3 g
  LIVER: 13.4 g
  ALP: 908.8 IU/L
  AST: 73.8 IU/L
  BUN: 16.8 mg/dL
  CRE: 0.4 mg/dL
  Ca: 10.8 mg/dL
  Cl: 100.8 meq/L
  DBIL: 0.09 mg/dL
  GLC: 205.2 mg/dL
  IP: 7.3 mg/dL
  K: 3.9 meq/L
  LDH: 225.8 IU/L
  Na: 140 meq/L
  PL: 168.4 mg/dL
  RALB: 3.3 g/dL
  TBIL: 0.1 mg/dL
  TC: 78.8 mg/dL
  TG: 144.6 mg/dL
  TP: 5.7 g/dL
  gamma-GTP: 0.8 IU/L
[3]
  TERMINAL_BW: 317.5 g
  APTT: 19.5 s
  Bas: 0%
  Eos: 1%
  Fbg: 215.4 mg/dL
  Hb: 14.7 g/dL
  Ht: 42.6%
  Lym: 79%
  MCH: 20.8 pg
  MCHC: 34.6%
  MCV: 59.9 fL
  Mono: 2.6%
  Neu: 16.2%
  PT: 12.3 s
  Plat: 123.5 x10_4/uL
  RBC: 711 x10_4/ul
  Ret: 3.9%
  WBC: 94.4 x10_2/uL
  KIDNEY_L: 1.3 g
  KIDNEY_R: 1.3 g
  KIDNEY_TOTAL: 2.5 g
  LIVER: 13.5 g
  ALP: 734.6 IU/L
  AST: 61.4 IU/L
  BUN: 17.2 mg/dL
  CRE: 0.5 mg/dL
  Ca: 10.6 mg/dL
  Cl: 102 meq/L
  DBIL: 0.08 mg/dL
  GLC: 222.6 mg/dL
  IP: 6.5 mg/dL
  K: 3.4 meq/L
  LDH: 171 IU/L
  Na: 139.8 meq/L
  PL: 139.6 mg/dL
  RALB: 3.4 g/dL
  TBIL: 0.1 mg/dL
  TC: 69 mg/dL
  TG: 95.4 mg/dL
  TP: 5.7 g/dL
  gamma-GTP: 1 IU/L
[4]
  TERMINAL_BW: 379.8 g
  APTT: 20.9 s
  Bas: 0%
  Eos: 1%
  Fbg: 228.8 mg/dL
  Hb: 15.6 g/dL
  Ht: 45%
  Lym: 83.2%
  MCH: 19.4 pg
  MCHC: 34.8%
  MCV: 55.9 fL
  Mono: 2%
  Neu: 13%
  PT: 12.4 s
  Plat: 110.6 x10_4/uL
  RBC: 804.8 x10_4/ul
  Ret: 2.2%
  WBC: 102.7 x10_2/uL
  KIDNEY_L: 1.3 g
  KIDNEY_R: 1.3 g
  KIDNEY_TOTAL: 2.6 g
  LIVER: 14.7 g
  ALP: 583 IU/L
  AST: 64.8 IU/L
  BUN: 16.6 mg/dL
  CRE: 0.5 mg/dL
  Ca: 10.7 mg/dL
  Cl: 102.6 meq/L
  DBIL: 0.078 mg/dL
  GLC: 235.4 mg/dL
  IP: 5.8 mg/dL
  K: 3.8 meq/L
  LDH: 142.8 IU/L
  Na: 141.2 meq/L
  PL: 137.8 mg/dL
  RALB: 3.4 g/dL
  TBIL: 0.1 mg/dL
  TC: 67.8 mg/dL
  TG: 104.8 mg/dL
  TP: 6 g/dL
  gamma-GTP: 0.8 IU/L
[5]
  TERMINAL_BW: 240.6 g
  APTT: 19 s
  Bas: 0%
  Eos: 1%
  Fbg: 214.2 mg/dL
  Hb: 13.1 g/dL
  Ht: 38.3%
  Lym: 77%
  MCH: 21 pg
  MCHC: 34.2%
  MCV: 61.4 fL
  Mono: 3.4%
  Neu: 18.6%
  PT: 12.3 s
  Plat: 127.7 x10_4/uL
  RBC: 624 x10_4/ul
  Ret: 5.2%
  WBC: 119.7 x10_2/uL
  KIDNEY_L: 1.1 g
  KIDNEY_R: 1.1 g
  KIDNEY_TOTAL: 2.2 g
  LIVER: 12.4 g
  ALP: 887.8 IU/L
  AST: 67.8 IU/L
  BUN: 15.2 mg/dL
  CRE: 0.3 mg/dL
  Ca: 10.6 mg/dL
  Cl: 101.8 meq/L
  DBIL: 0.08 mg/dL
  GLC: 220.6 mg/dL
  IP: 8.8 mg/dL
  K: 3.8 meq/L
  LDH: 157.2 IU/L
  Na: 141.4 meq/L
  PL: 145 mg/dL
  RALB: 3.4 g/dL
  TBIL: 0.1 mg/dL
  TC: 72.6 mg/dL
  TG: 99.2 mg/dL
  TP: 5.6 g/dL
  gamma-GTP: 1.2 IU/L
[6]
  TERMINAL_BW: 271.5 g
  APTT: 20 s
  Bas: 0%
  Eos: 1%
  Fbg: 221 mg/dL
  Hb: 13.5 g/dL
  Ht: 39.5%
  Lym: 82%
  MCH: 20.7 pg
  MCHC: 34.2%
  MCV: 60.6 fL
  Mono: 3.4%
  Neu: 13.2%
  PT: 12.2 s
  Plat: 132.7 x10_4/uL
  RBC: 652 x10_4/ul
  Ret: 4.7%
  WBC: 114.9 x10_2/uL
  KIDNEY_L: 1.1 g
  KIDNEY_R: 1.1 g
  KIDNEY_TOTAL: 2.2 g
  LIVER: 13.3 g
  ALP: 805 IU/L
  AST: 65 IU/L
  BUN: 15.6 mg/dL
  CRE: 0.4 mg/dL
  Ca: 10.6 mg/dL
  Cl: 101.4 meq/L
  DBIL: 0.066 mg/dL
  GLC: 200.4 mg/dL
  IP: 8.3 mg/dL
  K: 4 meq/L
  LDH: 229.6 IU/L
  Na: 140.8 meq/L
  PL: 150 mg/dL
  RALB: 3.4 g/dL
  TBIL: 0.1 mg/dL
  TC: 77.8 mg/dL
  TG: 85.2 mg/dL
  TP: 5.7 g/dL
  gamma-GTP: 0.8 IU/L
[7]
  TERMINAL_BW: 323 g
  APTT: 20.2 s
  Bas: 0%
  Eos: 0.8%
  Fbg: 208.4 mg/dL
  Hb: 14.2 g/dL
  Ht: 40.8%
  Lym: 82.8%
  MCH: 20.5 pg
  MCHC: 34.7%
  MCV: 59.1 fL
  Mono: 2.2%
  Neu: 13.6%
  PT: 12.1 s
  Plat: 133 x10_4/uL
  RBC: 691 x10_4/ul
  Ret: 4.1%
  WBC: 101.4 x10_2/uL
  KIDNEY_L: 1.3 g
  KIDNEY_R: 1.3 g
  KIDNEY_TOTAL: 2.5 g
  LIVER: 14.7 g
  ALP: 771.6 IU/L
  AST: 66.4 IU/L
  BUN: 15.8 mg/dL
  CRE: 0.5 mg/dL
  Ca: 10.3 mg/dL
  Cl: 101.4 meq/L
  DBIL: 0.074 mg/dL
  GLC: 210.8 mg/dL
  IP: 7.9 mg/dL
  K: 3.7 meq/L
  LDH: 198.2 IU/L
  Na: 140.6 meq/L
  PL: 145.8 mg/dL
  RALB: 3.4 g/dL
  TBIL: 0.1 mg/dL
  TC: 73.4 mg/dL
  TG: 96.8 mg/dL
  TP: 5.8 g/dL
  gamma-GTP: 1 IU/L
[8]
  TERMINAL_BW: 390.5 g
  APTT: 21.2 s
  Bas: 0%
  Eos: 1.2%
  Fbg: 210.4 mg/dL
  Hb: 15.1 g/dL
  Ht: 43.9%
  Lym: 79.6%
  MCH: 18.6 pg
  MCHC: 34.3%
  MCV: 54.3 fL
  Mono: 2.2%
  Neu: 16.6%
  PT: 12.3 s
  Plat: 106.5 x10_4/uL
  RBC: 809.8 x10_4/ul
  Ret: 2.6%
  WBC: 100.5 x10_2/uL
  KIDNEY_L: 1.4 g
  KIDNEY_R: 1.3 g
  KIDNEY_TOTAL: 2.7 g
  LIVER: 16.4 g
  ALP: 538.6 IU/L
  AST: 59.2 IU/L
  BUN: 15.4 mg/dL
  CRE: 0.5 mg/dL
  Ca: 10.5 mg/dL
  Cl: 101.4 meq/L
  DBIL: 0.088 mg/dL
  GLC: 220 mg/dL
  IP: 7.3 mg/dL
  K: 3.6 meq/L
  LDH: 174.8 IU/L
  Na: 141.8 meq/L
  PL: 141 mg/dL
  RALB: 3.6 g/dL
  TBIL: 0.1 mg/dL
  TC: 69.2 mg/dL
  TG: 133 mg/dL
  TP: 6.2 g/dL

— ChEMBL document CHEMBL3885861, “Open TG-GATES”
